# Where two headings read alike, the source gives them in different places. Marks after values point to notes of the source that are not given here.
# How the values were obtained:
# [1] = tested on: rat collagen induced arthritis (rCIA) paw swelling
# [2] = Rat liver microsome stability assay; type: in vitro ADME; conditions: rat liver microsomes (male Sprague-Dawley), 0.5 μM test compound, 0.25 mg/mL microsomal protein, pH 7.4, 37° C.; read-out: Stability in rat liver microsomes (t1/2 in minutes)
# [3] = tested on: OPM-2 human multiple myeloma xenograft tumors; test: animal or person; conditions: Mus musculus; for change in vivo at 0.5 mg/kg / inhibition in vivo at 0.5 mg/kg: 0.5 mg/kg/day; for change in vivo at 1 mg/kg / inhibition in vivo at 1 mg/kg: 1 mg/kg/day
# [4] = tested on: MV4-11 human cancer cell xenograft; test: Xenograft efficacy study, MV4-11; type: in vivo, mouse; conditions: PO, QDx21, vehicle D
# [5] = tested on: breast cancer cell line MX-1; test: MX-1 cell line proliferation assay; type: cell-based, human; conditions: Homo sapiens, MX1, 72 h; MX-1 cells, 3-day proliferation, Cell Titer Glo; read-out: Cellular proliferation: EC50
# [6] = tested on: rat collagen induced arthritis (rCIA) paw swelling; test: animal or person; conditions: po, read-out: ED50, inhibition of inflammation in the arthritic paw
# [7] = biological target: human BRD4 first bromodomain (BDI_K57-E168) (Homo sapiens (Human), UniProt O60885); test: TR-FRET bromodomain binding assay, BRD4 first bromodomain
# [8] = tested on: HT1080 human cancer cell xenograft; test: Xenograft efficacy study, HT1080; type: in vivo, mouse; conditions: PO, QDx14, vehicle H
# [9] = Human liver microsome stability assay; type: in vitro ADME; conditions: both sexes, human, microsomes, pH 7.4
# [10] = tested on: SKM1 human cancer cell xenograft; test: Xenograft efficacy study, SKM1; type: in vivo, mouse; conditions: PO, QDx21, vehicle A
# [11] = tested on: LPS induced IL-6 production; test: LPS (lipopolysaccharide) induced IL-6 production mouse assay; type: in vivo; conditions: Mus musculus, read-out: Inhibition of LPS induced IL-6 production in Mice, % inhibition at 3 mg/kg; 3 mg/kg oral, 1 h before LPS; serum IL-6 2 h after LPS
# [12] = tested on: MX-1 human breast cancer xenograft tumors; test: Xenograft tumor growth inhibition assay, MX-1; type: in vivo, mouse
# [13] = Mouse liver microsome stability assay; type: in vitro ADME; conditions: male, CD1, mouse, microsomes, pH 7.4
# [14] = OPM-2, po, read-out: % TGI (tumor growth inhibition), OPM-2, PO, QDx21, vehicle A
# [15] = MX-1, 0.3 mg/kg/day, PO, QD, vehicle F
# [16] = MX-1, 1 mg/kg/day, PO, QD, vehicle F
# [17] = MX-1, 3 mg/kg/day, PO, QD, vehicle F
smiles,measurement,setting,value
"CCS(=O)(=O)Nc1ccc(Oc2ccc(F)cc2F)c(-c2cn(C)c(=O)c3[nH]ccc23)c1 [Example 36, N-[4-(2,4-difluorophenoxy)-3-(6-methyl-7-oxo-6,7-dihydro-1H-pyrrolo[2,3-c]pyridin-4-yl)phenyl]ethanesulfonamide]",maximum plasma concentration at the ED50,"[1]; female, Lewis, rat, in vivo",0.0068 µg/mL
same,maximum plasma concentration at the ED80,"[1]; female, Lewis, rat, in vivo",0.0223 µg/mL
same,"AUC of Paw Swelling, MEAN","[1]; rCIA, dosed at 0.03 mg/kg orally once daily day 10-17",4.19 mL·days
same,"AUC of Paw Swelling, MEAN","[1]; rCIA, dosed at 0.1 mg/kg orally once daily day 10-17",3.66* ml-day
same,"AUC of Paw Swelling, MEAN","[1]; rCIA, dosed at 0.3 mg/kg orally once daily day 10-17",1.84** ml-day
same,"AUC of Paw Swelling, MEAN","[1]; rCIA, dosed at 1.0 mg/kg orally once daily day 10-17",0.70** ml-day
same,"ED80, inhibition of inflammation in the arthritic paw","[1]; rCIA, oral once daily",0.69 mg/kg
same,half-life at 0.5 μM,[2],> 2 h
same,change in vivo at 0.5 mg/kg,"[3]; OPM-2, ip, read-out: % TGD (tumor growth delay), OPM-2, IP, QDx21, vehicle F",52%
same,change in vivo at 1 mg/kg,"[3]; OPM-2, ip, read-out: % TGD (tumor growth delay), OPM-2, IP, Q4DX3, vehicle F",80%
same,inhibition in vivo at 0.5 mg/kg,"[3]; OPM-2, ip, read-out: % TGI (tumor growth inhibition), OPM-2, IP, QDx21, vehicle F",49%
same,inhibition in vivo at 1 mg/kg,"[3]; OPM-2, ip, read-out: % TGI (tumor growth inhibition), OPM-2, IP, Q4DX3, vehicle F",61%
same,inhibition in vivo at 1 mg/kg,"[3]; OPM-2, iv, read-out: % TGI (tumor growth inhibition), OPM-2, IV, Q4Dx3, vehicle C",69%
same,inhibition in vivo at 3 mg/kg,"[3]; OPM-2, po, 744 h, read-out: % TGI (tumor growth inhibition), OPM-2 xenograft, 3 mg/kg/day PO, QDx14, based on day 31",90%
same,change in vivo at 0.5 mg/kg,"[3]; OPM-2, po, read-out: % TGD (tumor growth delay), OPM-2, PO, QDx21, vehicle A",101%
same,change in vivo at 1 mg/kg,"[3]; OPM-2, po, read-out: % TGD (tumor growth delay), OPM-2, PO, BIDx21, vehicle A",140%
same,change in vivo at 3 mg/kg,"[3]; OPM-2, po, read-out: % TGD (tumor growth delay), OPM-2, 3 mg/kg/day, PO, QDx14, vehicle A",21%
same,change in vivo at 3 mg/kg,"[3]; OPM-2, po, read-out: % TGD (tumor growth delay), OPM-2, 3 mg/kg/day, PO, QDx21, vehicle A",131%
same,change in vivo at 6 mg/kg,"[3]; OPM-2, po, read-out: % TGD (tumor growth delay), OPM-2, 6 mg/kg/day, PO, Q2D x21 d, vehicle A",84%
same,change in vivo at 7 mg/kg,"[3]; OPM-2, po, read-out: % TGD (tumor growth delay), OPM-2, 7 mg/kg/day, PO, QD(3 on 4 off)x3, vehicle A",97%
same,change in vivo at 10.5 mg/kg,"[3]; OPM-2, po, read-out: % TGD (tumor growth delay), OPM-2, 10.5 mg/kg/day, PO, QD(2 on 5 off)x3, vehicle A",94%
same,change in vivo at 3 mg/kg,"[3]; OPM-2, po, read-out: % TGD (tumor growth delay), OPM-2 xenograft, 3 mg/kg/day PO, QDx14, endpoint of 1000 mm^3",78%
same,inhibition in vivo at 0.5 mg/kg,[3]; [14],75%
same,inhibition in vivo at 1 mg/kg,"[3]; OPM-2, po, read-out: % TGI (tumor growth inhibition), OPM-2, PO, BIDx21, vehicle A",74%
same,inhibition in vivo at 1 mg/kg,[3]; [14],75%
same,inhibition in vivo at 3 mg/kg,"[3]; OPM-2, po, read-out: % TGI (tumor growth inhibition), OPM-2, 3 mg/kg/day, PO, QDx14, vehicle A",90%
same,inhibition in vivo at 3 mg/kg,"[3]; OPM-2, po, read-out: % TGI (tumor growth inhibition), OPM-2, 3 mg/kg/day, PO, QDx21, vehicle A",88%
same,inhibition in vivo at 6 mg/kg,"[3]; OPM-2, po, read-out: % TGI (tumor growth inhibition), OPM-2, 6 mg/kg/day, PO, Q2D x21 d, vehicle A",82%
same,inhibition in vivo at 7 mg/kg,"[3]; OPM-2, po, read-out: % TGI (tumor growth inhibition), OPM-2, 7 mg/kg/day, PO, QD(3 on 4 off)x3, vehicle A",81%
same,inhibition in vivo at 10.5 mg/kg,"[3]; OPM-2, po, read-out: % TGI (tumor growth inhibition), OPM-2, 10.5 mg/kg/day, PO, QD(2 on 5 off)x3, vehicle A",75%
same,% TGD (tumor growth delay),[4]; 0.2 mg/kg/day,16*** %
same,% TGI (tumor growth inhibition),[4]; 0.2 mg/kg/day,22* %
same,% removed from study,[4]; 0.2 mg/kg/day,0%
same,% TGD (tumor growth delay),[4]; 2 mg/kg/day,94* %
same,% TGI (tumor growth inhibition),[4]; 2 mg/kg/day,81*** %
same,% removed from study,[4]; 2 mg/kg/day,0%
same,EC50,[5],17.4 nM
same,ED50,[6],0.21 mg/kg
same,Ki,[7],3.5 nM
same,% TGD (tumor growth delay),[8]; 0.3 mg/kg/day,−1%
same,% TGI (tumor growth inhibition),[8]; 0.3 mg/kg/day,26%
same,% removed from study,[8]; 0.3 mg/kg/day,30%
same,% TGD (tumor growth delay),[8]; 1 mg/kg/day,3%
same,% TGI (tumor growth inhibition),[8]; 1 mg/kg/day,41* %
same,% removed from study,[8]; 1 mg/kg/day,10%
same,% TGD (tumor growth delay),[8]; 3 mg/kg/day,46*** %
same,% TGI (tumor growth inhibition),[8]; 3 mg/kg/day,47** %
same,% removed from study,[8]; 3 mg/kg/day,10%
same,half-life at 0.5 μM,[9],> 2 h
same,% TGD (tumor growth delay),[10]; 0.2 mg/kg/day,93%
same,% TGI (tumor growth inhibition),[10]; 0.2 mg/kg/day,41* %
same,% removed from study,[10]; 0.2 mg/kg/day,0%
same,% TGD (tumor growth delay),[10]; 2 mg/kg/day,721*** %
same,% TGI (tumor growth inhibition),[10]; 2 mg/kg/day,86** %
same,% removed from study,[10]; 2 mg/kg/day,0%
same,inhibition in vivo at 3 mg/kg,[11],78%
same,% TGD (tumor growth delay),[12]; [15],40%
same,% TGI (tumor growth inhibition),[12]; [15],43** %
same,% removed from study,[12]; [15],0%
same,% TGI (tumor growth inhibition),[12]; [16],60*** %
same,% removed from study,[12]; [16],0%
same,% TGI (tumor growth inhibition),[12]; [17],76*** %
same,% removed from study,[12]; [17],0%
same,% TGI (tumor growth inhibition),"[12]; MX-1 xenograft, 0.3 mg/kg/day PO, QDx14, based on day 27",43** %
same,% TGI (tumor growth inhibition),"[12]; MX-1 xenograft, 1 mg/kg/day PO, QDx14, based on day 27",60*** %
same,% TGI (tumor growth inhibition),"[12]; MX-1 xenograft, 3 mg/kg/day PO, QDx14, based on day 27",76*** %
same,half-life at 0.5 μM,[13],0.683 h

# — patent publication US9296741B2, “Bromodomain inhibitors” (priority 2012, dated 2016)
